We go through 33 molecules from patent publication US9409884B2 (Rigel Pharmaceuticals, Inc., priority 2012, dated 2016).

pEC50: −log10 of the molar value. A value given as a limit tells only on which side of the number the result lay.

In the first test the target is AMPK. In words: AMPK activation, enzyme-linked immunosorbent assay. Type of test: biochemical. As to conditions: Table 11, compounds of Table 4. The essentials: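 Read-out: ELISA, used to detect compound-driven activation of AMPK.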
The pEC50 is the negative decadic logarithm of the EC50, by convention in mol/L. Low values mean a high EC50, high ones a low EC50. As for `N#Cc1ccc(CN2CC[C@H](NC(=O)c3ccc(C(=O)N4CCN(c5ccc(Cl)cc5)CC4)cn3)C2)cc1` [Compound 4-6, (S)-5-(4-(4-chlorophenyl)piperazine-1-carbonyl)-N-(1-(4-cyanobenzyl)pyrrolidin-3-yl)picolinamide], the pEC50 is 6.00 to 6.30.

`O=C(NC1CCN(Cc2ccc(Cl)cc2)C1)c1ccc(C(=O)N2CCN(c3ccc(Cl)cc3)CC2)cn1` (stereo not drawn) [Compound 4-7, N-(1-(4-chlorobenzyl)pyrrolidin-3-yl)-5-(4-(4-chlorophenyl)piperazine-1-carbonyl)picolinamide] gave a pEC50 of 5.30 to 6.00.

Turning to `O=C(NC1CCN(Cc2ccc(C(F)(F)F)cc2)C1)c1ccc(C(=O)N2CCN(c3ccc(Cl)cc3)CC2)cn1` (stereo not drawn) [Compound 4-8, 5-(4-(4-chlorophenyl)piperazine-1-carbonyl)-N-(1-(4-(trifluoromethyl)benzyl)pyrrolidin-3-yl)picolinamide], the pEC50 is 5.30 to 6.00.

Molecule `N#Cc1ccc(CN2CCC(NC(=O)c3ccc(C(=O)N4CCN(c5ccc(S(=O)(=O)N6CCCC6)cc5)CC4)nc3)CC2)cc1` [Compound 4-9, N-(1-(4-cyanobenzyl)piperidin-4-yl)-6-(4-(4-(pyrrolidin-1-ylsulfonyl)phenyl)piperazine-1-carbonyl)nicotinamide] gave a pEC50 of 6.00 to 6.30.

As for `CC(C)S(=O)(=O)c1ccc(N2CCN(C(=O)c3ccc(C(=O)NC4CCN(Cc5ccc(OC(F)(F)F)cc5)C[C@H]4F)cn3)CC2)cc1` (stereo partly drawn) [Compound 4-11, N-((3,4-trans)-3-fluoro-1-(4-(trifluoromethoxy)benzyl)piperidin-4-yl)-6-(4-(4-(isopropylsulfonyl)phenyl)piperazine-1-carbonyl)nicotinamide], the pEC50 was over 6.30.

`N#Cc1ccc(CN2CCC(NC(=O)c3ccc(C(=O)N4CCN(c5ccc(C(=O)C6CC6)cc5)CC4)nc3)[C@H](F)C2)cc1` (stereo partly drawn) [Compound 4-12, N-((3,4-trans)-1-(4-cyanobenzyl)-3-fluoropiperidin-4-yl)-6-(4-(4-(cyclopropanecarbonyl)phenyl)piperazine-1-carbonyl)nicotinamide] gave a pEC50 of over 6.30.

`CS(=O)(=O)c1ccc(CN2CCN(C(=O)c3ccc(C(=O)NC4CCN(Cc5ccc(C#N)cc5)CC4F)cn3)CC2)cc1` (stereo not drawn) [Compound 4-13, N-((3,4-trans)-1-(4-cyanobenzyl)-3-fluoropiperidin-4-yl)-6-(4-(4-(methylsulfonyl)benzyl)piperazine-1-carbonyl)nicotinamide] showed a pEC50 of 5.30 to 6.00.

The molecule `O=C(NC1CCN(Cc2ccc(OC(F)(F)F)cc2)C[C@H]1F)c1ccc(C(=O)N2CCN(c3ccc(S(=O)(=O)N4CCCC4)cc3)CC2)nc1` (stereo partly drawn) [Compound 4-14, N-((3,4-trans)-3-fluoro-1-(4-(trifluoromethoxy)benzyl)piperidin-4-yl)-6-(4-(4-(pyrrolidin-1-ylsulfonyl)phenyl)piperazine-1-carbonyl)nicotinamide] gave a pEC50 of over 6.30.

`O=C(NC1CCN(Cc2ccc(OC(F)(F)F)cc2)C[C@H]1F)c1ccc(C(=O)N2CCN(Cc3ccc(S(=O)(=O)N4CCCC4)cc3)CC2)nc1` (stereo partly drawn) [Compound 4-15, N-((3,4-trans)-3-fluoro-1-(4-(trifluoromethoxy)benzyl)piperidin-4-yl)-6-(4-(4-(pyrrolidin-1-ylsulfonyl)benzyl)piperazine-1-carbonyl)nicotinamide]: the pEC50 was over 6.30.

As to `N#Cc1ccc(CN2CCC(NC(=O)c3ccc(C(=O)N4CCN(Cc5ccc(S(=O)(=O)N6CCCC6)cc5)CC4)nc3)CC2)cc1` [Compound 4-16, N-(1-(4-cyanobenzyl)piperidin-4-yl)-6-(4-(4-(pyrrolidin-1-ylsulfonyl)benzyl)piperazine-1-carbonyl)nicotinamide], the pEC50 is over 6.30.

`CCNS(=O)(=O)c1ccc(CN2CCN(C(=O)c3ccc(C(=O)NC4CCN(Cc5ccc(C#N)cc5)CC4)cn3)CC2)cc1` [Compound 4-17, N-(1-(4-cyanobenzyl)piperidin-4-yl)-6-(4-(4-(N-ethylsulfamoyl)benzyl)piperazine-1-carbonyl)nicotinamide]: the pEC50 was 5.30 to 6.00.

The test is the same for the next values; noted with them: Table 12, compounds of Table 5.
The molecule `COc1ccc(CN2CCC(Oc3ccc(C(=O)NC4CCN(Cc5ccccc5)CC4)cc3Cl)CC2)cc1` [Compound 5-1, N-(1-benzylpiperidin-4-yl)-3-chloro-4-(1-(4-methoxybenzyl)piperidin-4-yloxy)benzamide] had a pEC50 of over 6.00.

`COc1cc(C(=O)NC2CCN(Cc3ccccc3)CC2)ccc1OC1CCN(Cc2ccccc2)CC1` [Compound 5-2, N-(1-benzylpiperidin-4-yl)-4-(1-benzylpiperidin-4-yloxy)-3-methoxybenzamide] showed a pEC50 of over 6.00.

In turn, `Cn1cncc1CN1CCC(Oc2ccc(C(=O)NC3CCN(Cc4ccccc4)CC3)cc2)CC1` [Compound 5-4, N-(1-benzylpiperidin-4-yl)-4-(1-((1-methyl-1H-imidazol-5-yl)methyl)piperidin-4-yloxy)benzamide] showed a pEC50 of under 4.00.

Take `Cn1cncc1CN1CCC(Oc2ccc(C(=O)NC3CCN(Cc4ccccc4)CC3)cc2Cl)CC1` [Compound 5-5, N-(1-benzylpiperidin-4-yl)-3-chloro-4-(1-((1-methyl-1H-imidazol-5-yl)methyl)piperidin-4-yloxy)benzamide]: the pEC50 was 4.00 to 4.30.

Turning to `O=C(NC1CCN(Cc2ccccc2)CC1)c1ccc(OC2CCN(Cc3ccncc3)CC2)c(Cl)c1` [Compound 5-6, N-(1-benzylpiperidin-4-yl)-3-chloro-4-(1-(pyridin-4-ylmethyl)piperidin-4-yloxy)benzamide], the pEC50 is over 6.00.

`COc1cc(C(=O)NC2CCN(Cc3ccccc3)CC2)ccc1OC1CCN(CCCc2ccccc2)CC1` [Compound 5-7, N-(1-benzylpiperidin-4-yl)-3-methoxy-4-(1-(3-phenylpropyl)piperidin-4-yloxy)benzamide] showed a pEC50 of over 6.00.

Regarding `COc1cc(C(=O)NC2CCN(Cc3ccccc3)CC2)ccc1OC1CCN(c2cccs2)CC1` [Compound 5-8, N-(1-benzylpiperidin-4-yl)-3-methoxy-4-(1-(thiophen-2-yl)piperidin-4-yloxy)benzamide], the pEC50 was 5.00 to 6.00.

Turning to `COc1cc(C(=O)NC2CCN(Cc3ccccc3)CC2)ccc1OC1CCN(S(C)(=O)=O)CC1` [Compound 5-9, N-(1-benzylpiperidin-4-yl)-3-methoxy-4-(1-(methylsulfonyl)piperidin-4-yloxy)benzamide], the negative-log EC50 (pEC50) was 4.30 to 4.70.

As for `O=C(NC1CCN(Cc2ccccc2)CC1)c1ccc(OC2CCN(c3cccs3)CC2)c(Cl)c1` [Compound 5-10, N-(1-benzylpiperidin-4-yl)-3-chloro-4-(1-(thiophen-2-yl)piperidin-4-yloxy)benzamide], the pEC50 is 5.00 to 6.00.

The molecule `O=C(NC1CCN(Cc2ccccc2)CC1)c1ccc(OC2CCN(c3ccco3)CC2)c(Cl)c1` [Compound 5-11, N-(1-benzylpiperidin-4-yl)-3-chloro-4-(1-(furan-2-yl)piperidin-4-yloxy)benzamide] showed a pEC50 of 5.00 to 6.00.

As to `COc1cc(C(=O)NC2CCN(Cc3ccccc3)CC2)ccc1OC1CCN(c2ccco2)CC1` [Compound 5-12, N-(1-benzylpiperidin-4-yl)-3-methoxy-4-(1-(furan-2-yl)piperidin-4-yloxy)benzamide], the pEC50 was 5.00 to 6.00.

Take `O=C(NC1CCN(Cc2ccccc2)CC1)c1cccc(OC2CCN(Cc3ccccc3)CC2)c1` [Compound 5-13, N-(1-benzylpiperidin-4-yl)-3-(1-benzylpiperidin-4-yloxy)benzamide]: the pEC50 is 4.30 to 4.70.

Regarding `O=C(NC1CCN(Cc2ccccc2)CC1)c1ccc(OC2CCN(Cc3ccccc3)CC2)c(Cl)c1` [Compound 5-14, N-(1-benzylpiperidin-4-yl)-4-(1-benzylpiperidin-4-yloxy)-3-chlorobenzamide], the pEC50 is over 6.00.

As to `O=C(NC1CCN(Cc2ccccc2)CC1)c1ccc(OC2CCN(Cc3ccc4c(c3)OCCO4)CC2)c(Cl)c1` [Compound 5-15], the pEC50 was over 6.00.

`CC(C)(C)c1ccc(CN2CCC(Oc3ccc(C(=O)NC4CCN(Cc5ccccc5)CC4)cc3Cl)CC2)cc1` [Compound 5-16, N-(1-benzylpiperidin-4-yl)-4-(1-(4-tert-butylbenzyl)piperidin-4-yloxy)-3-chlorobenzamide] showed a pEC50 of over 6.00.

As to `O=C(NC1CCN(Cc2ccccc2)CC1)c1ccc(OC2CCN(c3ccc(C(F)(F)F)cc3)CC2)c(Cl)c1` [Compound 5-17], the pEC50 is over 6.00.

The molecule `O=C(NC1CCN(Cc2ccccc2)CC1)c1ccc(OC2CCN(C(=O)c3ccc(C(F)(F)F)cc3)CC2)c(Cl)c1` [Compound 5-18, N-(1-benzylpiperidin-4-yl)-3-chloro-4-(1-(4-(trifluoromethyl)benzoyl)piperidin-4-yloxy)benzamide] gave a pEC50 of over 6.00.

In turn, `O=C(NC1CCN(Cc2ccccc2)CC1)c1ccc(OC2CCN(Cc3ccc(F)cc3)CC2)c(Cl)c1` [Compound 5-19, N-(1-benzylpiperidin-4-yl)-3-chloro-4-(1-(4-fluorobenzyl)piperidin-4-yloxy)benzamide] showed a pEC50 of over 6.00.

As for `CC(C)(C)c1ccc(CN2CCC(Oc3ccc(C(=O)NC4CCN(Cc5ccccc5)CC4)cc3F)CC2)cc1` [Compound 5-20, N-(1-benzylpiperidin-4-yl)-3-fluoro-4-(1-(4-tert-butylbenzyl)piperidin-4-yloxy)benzamide], the pEC50 is over 6.00.

As to `CC(c1ccccc1)N1CCC(Oc2ccc(C(=O)NC3CCN(Cc4ccccc4)CC3)cc2F)CC1` (stereo not drawn) [Compound 5-21, N-(1-benzylpiperidin-4-yl)-3-fluoro-4-(1-(1-phenylethyl)piperidin-4-yloxy)benzamide], the pEC50 was 5.00 to 6.00.

In turn, `O=C(NC1CCN(Cc2ccccc2)CC1)c1ccc(OC2CCN(C(=O)c3ccc(F)cc3)CC2)c(Cl)c1` [Compound 5-22, N-(1-benzylpiperidin-4-yl)-3-chloro-4-(1-(4-fluorobenzoyl)piperidin-4-yloxy)benzamide] gave a pEC50 of 5.00 to 6.00.

Take `O=C(NC1CCN(Cc2ccccc2)CC1)c1ccc(OC2CCN(c3ccc(C(F)(F)F)cc3)CC2)c(F)c1` [Compound 5-23, N-(1-benzylpiperidin-4-yl)-3-fluoro-4-(1-(4-(trifluoromethyl)phenyl)piperidin-4-yloxy)benzamide]: the pEC50 was over 6.00.
